Like-named read-outs stand apart in the source and are kept apart here.
What was measured:
human RORγ = molecular target: T1, human RORγ (Homo sapiens, UniProt P51449); assay: Luciferase reporter gene assay of inhibitory effect against RORγ transcriptional activity (GAL4-hRORγ plasmid in CHO cells); type: cell-based
T1 construct: human, NM_005060.3 and from Ser253 to Lys518; expressed in transfected cells; host or cells: CHO cells (transient co-transfection with pG5-Luc reporter)
T1 sequence (P51449 253-518): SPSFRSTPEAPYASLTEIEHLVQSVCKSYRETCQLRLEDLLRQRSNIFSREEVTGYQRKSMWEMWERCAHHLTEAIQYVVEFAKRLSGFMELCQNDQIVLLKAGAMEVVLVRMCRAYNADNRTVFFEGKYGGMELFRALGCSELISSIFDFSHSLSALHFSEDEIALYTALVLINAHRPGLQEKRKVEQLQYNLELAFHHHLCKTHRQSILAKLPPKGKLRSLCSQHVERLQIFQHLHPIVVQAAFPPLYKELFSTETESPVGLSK

mouse RORγ = molecular target: T2, mouse RORγ (Mus musculus, UniProt P51450); assay: Luciferase reporter gene assay of inhibitory effect against RORγ transcriptional activity (GAL4-mRORγ plasmid in CHO cells); type: cell-based
T2 construct: mouse, NM_011281.2 and from Ile251 to Lys516; expressed in transfected cells; host or cells: CHO cells (transient co-transfection with pG5-Luc reporter)
T2 sequence (P51450 251-516): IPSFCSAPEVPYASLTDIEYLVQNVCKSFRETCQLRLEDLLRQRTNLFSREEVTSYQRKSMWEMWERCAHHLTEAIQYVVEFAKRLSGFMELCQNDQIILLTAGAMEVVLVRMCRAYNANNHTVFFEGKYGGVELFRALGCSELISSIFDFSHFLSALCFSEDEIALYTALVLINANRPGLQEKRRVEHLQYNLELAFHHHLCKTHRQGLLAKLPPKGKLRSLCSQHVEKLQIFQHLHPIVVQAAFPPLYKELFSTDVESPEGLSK
How it was run: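 Readout is intracellular luciferase after 2-day compound exposure (8 concentrations, 0.1% DMSO) in CHO cells expressing GAL4 fused to mouse RORγ LBD residues Ile251–Lys516 plus pG5-Luc reporter. EC50 fitted from %-of-control; points showing resazurin-detected cytotoxicity dropped.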

With CC(C)(C)C[C@H]1C[C@@H](c2onc([C@@H](CCC(=O)O)CC(=O)NS(=O)(=O)c3ccccc3)c2C2CC2)C1 [Example F-723] the EC50 (human RORγ; read-out: LUC EC50 hRORg) was > 3 µM and the EC50 (mouse RORγ; read-out: LUC EC50 mRORg) was > 3 µM.
For CCn1c(CCC(=O)NC23CC4CC(CC(C4)C2)C3)nnc1C1Cc2ccccc2C1 [Example F-24], the EC50 (human RORγ; read-out: LUC EC50 (μM) hRORg) was > 3 µM and the EC50 (mouse RORγ; read-out: LUC EC50 (μM) mRORg) was > 3 µM.
With Cc1ccc(NC(=O)C[C@H](CCC(=O)O)c2noc(-c3cc(CCC(C)C)on3)c2C(F)(F)F)c(F)c1 [Example E-13] the EC50 (human RORγ; read-out: LUC EC50 (μM) hRORg) was > 3 µM and the EC50 (mouse RORγ; read-out: LUC EC50 (μM) mRORg) was < 3 µM.
In the case of Cc1ccc(NC(=O)CC(Cc2cc(O)no2)c2nnc([C@H]3C[C@@H](CC(C)C)C3)n2C2CC2)c(C)c1 (mixture of isomers) [Example F-450], the EC50 (human RORγ; read-out: LUC EC50 (μM) hRORg) is reported as < 3 µM and the EC50 (mouse RORγ; read-out: LUC EC50 (μM) mRORg) is reported as < 3 µM.
CC(=O)N1C[C@H](C(=O)Nc2ccc(C)cc2C)[C@@H](c2nnc(-c3cc(C(C)C)on3)n2C2CC2)C1 (racemic) [Example F-350] was tested, and the EC50 (human RORγ; read-out: LUC EC50 (μM) hRORg) was < 3 µM and the EC50 (mouse RORγ; read-out: LUC EC50 (μM) mRORg) was < 3 µM.
For Cc1ccc(NC(=O)C[C@H](CCO)c2nnc(CCC3CCCCC3)n2C2CC2)c(C)c1 [Example F-385], the EC50 (human RORγ; read-out: LUC EC50 (μM) hRORg) was < 3 µM and the EC50 (mouse RORγ; read-out: LUC EC50 (μM) mRORg) was < 3 µM.
In the case of Cc1ccc(NC(=O)C[C@@H](CCO)c2nnc([C@H]3C[C@@H](CC(C)C)C3)n2C2CC2)c(C)c1 [Example F-360], the EC50 (human RORγ; read-out: LUC EC50 (μM) hRORg) is reported as > 3 µM and the EC50 (mouse RORγ; read-out: LUC EC50 (μM) mRORg) is reported as > 3 µM.
With Cc1cc(Cl)ccc1NC(=O)CCc1nnc(CCC(C)C)n1C1CC1 [Example F-138] the EC50 (human RORγ; read-out: LUC EC50 (μM) hRORg) was > 3 µM and the EC50 (mouse RORγ; read-out: LUC EC50 (μM) mRORg) was < 3 µM.
For Cc1cc(Cl)ccc1NC(=O)C[C@H](CCO)c1nnc(-c2cc(CCC(C)C)on2)n1C1CC1 [Example F-616], the EC50 (human RORγ; read-out: LUC EC50 hRORg) was < 3 µM and the EC50 (mouse RORγ; read-out: LUC EC50 mRORg) was < 3 µM.
With Cc1c(Cl)cccc1NC(=O)CCc1nnc(C#CC(C)C)n1C1CC1 [Example F-158] the EC50 (human RORγ; read-out: LUC EC50 (μM) hRORg) was > 3 µM and the EC50 (mouse RORγ; read-out: LUC EC50 (μM) mRORg) was < 3 µM.
With CC(C)CCc1nnc(CCC(=O)NC2CCc3ccccc32)n1C1CC1 (racemic) [Example F-83] the EC50 (human RORγ; read-out: LUC EC50 (μM) hRORg) was > 3 µM and the EC50 (mouse RORγ; read-out: LUC EC50 (μM) mRORg) was > 3 µM.
For Cc1ccc(NC(=O)CCc2cc([C@H]3C[C@@H](CC(C)(C)C)C3)on2)c(Cl)c1 [Example F-733], the EC50 (human RORγ; read-out: LUC EC50 hRORg) was < 3 µM and the EC50 (mouse RORγ; read-out: LUC EC50 mRORg) was < 3 µM.
For Cc1ccc(NC(=O)C[C@H](CCCO)c2nnc([C@H]3C[C@@H](CC(C)C)C3)n2C2CC2)c(C)c1 [Example F-511], the EC50 (human RORγ; read-out: LUC EC50 hRORg) was < 3 µM and the EC50 (mouse RORγ; read-out: LUC EC50 mRORg) was < 3 µM.
For COc1cccc(C)c1NC(=O)CCc1nnc(CCC(C)C)n1C1CC1 [Example F-86], the EC50 (human RORγ; read-out: LUC EC50 (μM) hRORg) was > 3 µM and the EC50 (mouse RORγ; read-out: LUC EC50 (μM) mRORg) was > 3 µM.
CC(=O)N1C[C@H](C(=O)Nc2ccc(C)cc2C)[C@@H](c2nnc([C@H]3C[C@H](c4ccccc4)C3)n2C2CC2)C1 (racemic) [Example F-345] was tested, and the EC50 (human RORγ; read-out: LUC EC50 (μM) hRORg) was < 3 µM and the EC50 (mouse RORγ; read-out: LUC EC50 (μM) mRORg) was < 3 µM.
Cc1ccc(NC(=O)C[C@H](CCO)c2nnc(CCCC(C)(C)C)n2CC(F)(F)F)c(C)c1 [Example F-380] was tested, and the EC50 (human RORγ; read-out: LUC EC50 (μM) hRORg) was < 3 µM and the EC50 (mouse RORγ; read-out: LUC EC50 (μM) mRORg) was < 3 µM.
Cc1cc(CO)ccc1NC(=O)CCc1nnc(CCC(C)C)n1C1CC1 [Example F-88] was tested, and the EC50 (human RORγ; read-out: LUC EC50 (μM) hRORg) was > 3 µM and the EC50 (mouse RORγ; read-out: LUC EC50 (μM) mRORg) was > 3 µM.
For CC(C)Cn1c(CCC(=O)Nc2cccc3ccccc23)nnc1C1Cc2ccccc2C1 [Example F-11], the EC50 (human RORγ; LUC EC50 (μM) hRORg) was > 3 µM and the EC50 (mouse RORγ; LUC EC50 (μM) mRORg) was > 3 µM.
CCn1c(CCC(=O)NCc2ccccc2)nnc1CCC1CCCCC1 [Example F-45] was tested, and the EC50 (human RORγ; read-out: LUC EC50 (μM) hRORg) was > 3 µM and the EC50 (mouse RORγ; read-out: LUC EC50 (μM) mRORg) was > 3 µM.
Cc1c(Cl)cccc1NC(=O)CCc1nnc(CCN2CCCCC2=O)n1C1CC1 [Example F-187] was tested, and the EC50 (human RORγ; read-out: LUC EC50 (μM) hRORg) was > 3 µM and the EC50 (mouse RORγ; read-out: LUC EC50 (μM) mRORg) was > 3 µM.
For C=CCC(CC(=O)Nc1cccc(Cl)c1C)c1nnc(CCC2CCCCC2)n1C1CC1 (racemic) [Example F-244], the EC50 (human RORγ; read-out: LUC EC50 (μM) hRORg) was < 3 µM and the EC50 (mouse RORγ; read-out: LUC EC50 (μM) mRORg) was < 3 µM.
In the case of CC(=O)N1C[C@H](C(=O)Nc2ccc(C)cc2C)[C@@H](c2nnc(C3CN(C(=O)CC(C)(C)C)C3)n2C2CC2)C1 (racemic) [Example F-417], the EC50 (human RORγ; read-out: LUC EC50 (μM) hRORg) is reported as > 3 µM and the EC50 (mouse RORγ; read-out: LUC EC50 (μM) mRORg) is reported as > 3 µM.
With Cc1c(F)ccc(NC(=O)C[C@H](CCO)c2nnc([C@H]3C[C@@H](CC(C)C)C3)n2C2CC2)c1C [Example F-623] the EC50 (human RORγ; read-out: LUC EC50 hRORg) was < 3 µM and the EC50 (mouse RORγ; read-out: LUC EC50 mRORg) was < 3 µM.
In the case of Cc1c(Cl)cccc1NC(=O)CC(O)c1nnc(CCC(C)C)n1C1CC1 (racemic) [Example F-164], the EC50 (human RORγ; read-out: LUC EC50 (μM) hRORg) is reported as > 3 µM and the EC50 (mouse RORγ; read-out: LUC EC50 (μM) mRORg) is reported as < 3 µM.
For C=CCC(CC(=O)Nc1ccc(C)cc1C)c1nnc(CCCC(C)C)n1C1CC1 (racemic) [Example F-198], the EC50 (human RORγ; read-out: LUC EC50 (μM) hRORg) was < 3 µM and the EC50 (mouse RORγ; read-out: LUC EC50 (μM) mRORg) was < 3 µM.
CC(=O)N1C[C@H](C(=O)Nc2ccc(C)cc2C)[C@@H](c2nnc(-c3ccc(C(C)C)cc3)n2C2CC2)C1 [Example F-371] was tested, and the EC50 (human RORγ; read-out: LUC EC50 (μM) hRORg) was < 3 µM and the EC50 (mouse RORγ; read-out: LUC EC50 (μM) mRORg) was < 3 µM.

Reference: patent US20160137639A1, “TRIAZOLE-ISOXAZOLE COMPOUND AND MEDICAL USE THEREOF” (JAPAN TOBACCO INC., priority 2012, published 2016)
